# Measurements as given in US20090246292A1, “ANTIMICROBIAL FORMULATIONS COMPRISING A QUINONE AND A COPPER SALT” (priority 2006, published 2009).
# “And” between values parts separate entries of the source, which are not always exact repeats. Equal values may be shown once.
# Key:
# P. acnes PRP-002 = P. acnes PRP-002 (resistance Tet/MLS); agar dilution
# Experimental: (§1) This is a standard international method for quantitatively assessing the antimicrobial activity of a compound in a solid medium. […] A set amount of these antimicrobial stock solutions was then added to molten agar medium (ca. 55° C.), mixed thoroughly, poured into sterile Petri dishes and allowed to cool/set. The culture medium was as described above.
# (§2) A Multipoint™ Inoculator (AQS Manufacturing Ltd, UK) was used to inoculate the plates by spotting the inocula onto the surface of the agar, delivering approximately 1 to 2 μl per spot (yielding 10^5 CFU (colony forming units) per spot).
# (§3) The plate(s) were then incubated under the conditions described above, following which they were examined visually for signs of bacterial growth. The MIC value was ascertained when there was a marked reduction in, or total loss of, growth on the test plate at the lowest concentration as compared to that of the growth on the control plate.
# P. acnes PRP-003 = P. acnes PRP-003 (resistance Tet); agar dilution
# Experimental: as §1, §2, §3
# P. acnes PRP-004 [1] = settings: P. acnes PRP-004 (resistance Tet); agar dilution
# Experimental: as §1, §2, §3
# P. acnes PRP-007 = P. acnes PRP-007 (resistance Clin); agar dilution
# Experimental: as §1, §2, §3
# P. acnes PRP-008 = P. acnes PRP-008 (resistance Clin); agar dilution
# Experimental: as §1, §2, §3
# P. acnes PRP-010 = P. acnes PRP-010 (resistance MLSK); agar dilution
# Experimental: as §1, §2, §3
# P. acnes PRP-017 = P. acnes PRP-017 (resistance MLS); agar dilution
# Experimental: as §1, §2, §3
# P. acnes PRP-023 = P. acnes PRP-023 (resistance MLSK); agar dilution
# Experimental: as §1, §2, §3
# P. acnes PRP-026 = P. acnes PRP-026 (resistance MLS); agar dilution
# Experimental: as §1, §2, §3
# P. acnes PRP-039 = P. acnes PRP-039 (resistance Tet/MLS); agar dilution
# Experimental: as §1, §2, §3
# P. acnes PRP-046 = P. acnes PRP-046 (resistance None); agar dilution
# Experimental: as §1, §2, §3
# P. acnes PRP-053 = P. acnes PRP-053 (resistance Tet/MLS); agar dilution
# Experimental: as §1, §2, §3
# P. acnes PRP-059 [2] = settings: P. acnes PRP-059 (resistance MLS); agar dilution
# Experimental: as §1, §2, §3
# P. acnes PRP-068 [3] = settings: P. acnes PRP-068 (resistance Ery); agar dilution
# Experimental: as §1, §2, §3
# P. acnes PRP-101 = P. acnes PRP-101 (resistance Tet/MLS); agar dilution
# Experimental: as §1, §2, §3
# P. acnes PRP-102 = P. acnes PRP-102 (resistance Tet/MLS); agar dilution
# Experimental: as §1, §2, §3
# P. granulosum NCTC 11865 = P. granulosum NCTC 11865 (resistance None); agar dilution
# Experimental: as §1, §2, §3
# P. granulosum PRP-005 = P. granulosum PRP-005 (resistance MLSK); agar dilution
# Experimental: as §1, §2, §3
# P. granulosum PRP-006 = P. granulosum PRP-006 (resistance MLS); agar dilution
# Experimental: as §1, §2, §3
# P. granulosum PRP-019 = P. granulosum PRP-019 (resistance MLSK); agar dilution
# Experimental: as §1, §2, §3
# P. granulosum PRP-021 = P. granulosum PRP-021 (resistance MLS); agar dilution
# Experimental: as §1, §2, §3
# P. granulosum PRP-043 = P. granulosum PRP-043 (resistance MLS); agar dilution
# Experimental: as §1, §2, §3
# P. granulosum PRP-044 = P. granulosum PRP-044 (resistance MLS); agar dilution
# Experimental: as §1, §2, §3
# P. granulosum PRP-055 = P. granulosum PRP-055 (resistance None); agar dilution
# Experimental: as §1, §2, §3
# P. acnes PRP-004 [4] = test: Disc diffusion assay (DDA), also supplemented; format: cell-based, Propionibacterium acnes; settings: 200 μg per disc
# Experimental: (§4) The propionibacteria were cultured and maintained on Wilkins-Chalgren Anaerobe Medium (agar and broth) at pH 6.0; all cultures were incubated anaerobically at 37° C. for 72 hours.
# (§5) A sterile paper disc was impregnated with a sample of the test compound in a suitable solvent and 30 minutes allowed for the solvents to evaporate (where possible). The disc was then placed on an agar plate onto which the test micro-organism had been inoculated. The plate was then incubated under the conditions described above, following which it was examined visually for signs of bacterial growth. […] The diameter of this zone of “inhibition” was measured using a ProtoCOL™ automated zone sizer (Synbiosis, Cambridge, UK).
# (§6) For assays using Propionibacterium spp. strains the supplements used in the examples below were lipid (either Tween™ 80 or triolein, both at 1% v/v) and sodium chloride (100 mM).
# P. acnes PRP-059 [5] = test: Disc diffusion assay (DDA), also supplemented; format: cell-based, Propionibacterium acnes; settings: 200 μg per disc
# Experimental: as §4, §5, §6
# P. acnes PRP-068 [6] = test: Disc diffusion assay (DDA), also supplemented; format: cell-based, Propionibacterium acnes; settings: 200 μg per disc
# Experimental: as §4, §5, §6
# S. aureus ATCC 29213 = test: Disc diffusion assay (DDA), also supplemented
# P. acnes NCTC 737 = test: Synergy disc diffusion assay (SDDA), also supplemented
# Experimental: as §4
# (e) Synergy Disc Diffusion Assay (SDDA)
# This is a variation on the DDA method, in which two compounds are tested together for their combined antimicrobial activity.
# Two test compounds A and B were placed on a single paper disc and the above described DDA procedure repeated.
# (f) Supplemented Disc Diffusion Assays
# as §6
smiles,measurement,setting,value
O.O.O.O.O.O=S(=O)([O-])[O-].[Cu+2] [Copper (II) sulphate pentahydrate],MIC,P. acnes PRP-002,7.8 µg/mL
same,MIC,P. acnes PRP-003,7.8 µg/mL
same,MIC,P. acnes PRP-004 [1],7.8 µg/mL
same,MIC,P. acnes PRP-007,7.8 µg/mL
same,MIC,P. acnes PRP-008,7.8 µg/mL
same,MIC,P. acnes PRP-010,7.8 µg/mL
same,MIC,P. acnes PRP-017,7.8 µg/mL
same,MIC,P. acnes PRP-023,7.8 µg/mL
same,MIC,P. acnes PRP-026,7.8 µg/mL
same,MIC,P. acnes PRP-039,7.8 µg/mL
same,MIC,P. acnes PRP-046,7.8 µg/mL
same,MIC,P. acnes PRP-053,7.8 µg/mL
same,MIC,P. acnes PRP-059 [2],7.8 µg/mL
same,MIC,P. acnes PRP-068 [3],7.8 µg/mL
same,MIC,P. acnes PRP-101,7.8 µg/mL
same,MIC,P. acnes PRP-102,7.8 µg/mL
same,MIC,P. granulosum NCTC 11865,7.8 µg/mL
same,MIC,P. granulosum PRP-005,62.5 µg/mL
same,MIC,P. granulosum PRP-006,62.5 µg/mL
same,MIC,P. granulosum PRP-019,62.5 µg/mL
same,MIC,P. granulosum PRP-021,62.5 µg/mL
same,MIC,P. granulosum PRP-043,7.8 µg/mL
same,MIC,P. granulosum PRP-044,62.5 µg/mL
same,MIC,P. granulosum PRP-055,62.5 µg/mL
same,DDA + salt,P. acnes PRP-004 [4],52.60 mm
same,DDA + lipid,P. acnes PRP-004 [4]; 1% (v/v) triolein,45.61 mm
same,DDA,P. acnes PRP-004 [4]; single replicate,51.08 mm
same,DDA,P. acnes PRP-004 [4]; Table 12 series,44.85 mm
same,DDA + salt,P. acnes PRP-059 [5],55.33 mm
same,DDA + lipid,P. acnes PRP-059 [5]; 1% (v/v) triolein,48.95 mm
same,DDA,P. acnes PRP-059 [5]; single replicate,48.04 mm
same,DDA,P. acnes PRP-059 [5]; Table 12 series,50.70 mm
same,DDA + salt,P. acnes PRP-068 [6],54.73 mm
same,DDA + lipid,P. acnes PRP-068 [6]; 1% (v/v) triolein,49.56 mm
same,DDA,P. acnes PRP-068 [6]; single replicate,52.90 mm
same,DDA,P. acnes PRP-068 [6]; Table 12 series,51.12 mm
same,DDA,S. aureus ATCC 29213,0 mm and 0.00 (±0.00) mm
same,DDA + lipid,S. aureus ATCC 29213,0 mm
same,DDA + salt,S. aureus ATCC 29213,0 mm
same,DDA + salt & serum,S. aureus ATCC 29213,0 mm and 0.00 (±0.00) mm
same,SDDA area increase,P. acnes NCTC 737,108.63%
same,SDDA increase,P. acnes NCTC 737,22.11 mm
same,SDDA with TBHQ,P. acnes NCTC 737,71.86 mm
same,SL SDDA area increase,P. acnes NCTC 737,64.85%
same,SL SDDA increase,P. acnes NCTC 737,14.18 mm
same,SL SDDA with TBHQ,P. acnes NCTC 737,64.14 mm
